Measured values from article PMC10472371, “Discovery of E2730, a novel selective uncompetitive GAT1 inhibitor, as a candidate for anti‐seizure medication” (Epilepsia Open, 2023).
Entries after “also recorded” stand apart in the source; their conditions may differ.

Assays:
[1] = test system: 6 Hz-44 mA psychomotor seizure mice; assay: Pharmaco-resistant 6 Hz-44 mA psychomotor seizures in mice; assay type: in vivo, mouse; conditions: Mus musculus; oral, 1 hour before electrostimulation, ddY mice; read-out: ED50 (95% CI), 6 Hz-44 mA psychomotor seizures
Experimental: Psychomotor seizures were stimulated by applying currents (44 mA, 6 Hz, 0.2 millisecond rectangular pulse width, 3‐second duration each) via a corneal electrode (SEN‐7203; Nihon Kohden). E2730 (5–50 mg/kg), levetiracetam (Tokyo Chemical Industry; 20–200 mg/kg), or vehicle was orally administered to ddY mice (male, 5 weeks old; Japan SLC Inc.) 1 hour before electrostimulation. […] Behavioral seizures observed in mice were classified into the following four types: stun, forelimb clonus, twitching of the vibrissae, and Straub‐tail.

[2] = test system: extracellular GABA concentration in mouse hippocampus; assay: Microdialysis: extracellular GABA concentration in mouse hippocampus; assay type: in vivo
Experimental: A guide cannula was implanted in the left hippocampus (2.7 mm posterior, 3.3 mm left, and 1.8 mm below from the bregma) of ddY mice (male, 5 weeks old). After 5–7 days of recovery, a microdialysis probe (Eicom) was inserted into the left hippocampus through the guide cannula. The tip of the microdialysis probe reached 4.8 mm below the bregma. The next day, the probe was connected to a perfusion tube and perfused with Ringer solution (containing 147.0 mM NaCl, 4.7 mM KCl, 0.6 mM MgSO4, 2.5 mM CaCl2, 5.0 mM HEPES, pH 7.4) at a flow rate of 1.5 μL/min. After ≥160 minutes of perfusion, collection of the perfusate (30 μL/20 min/fraction) was initiated, and 12 fractions per animal were collected for 240 minutes. E2730 (10–100 mg/kg), tiagabine (3–30 mg/kg), or vehicle was orally administered 72 minutes after initiating sample collection. Tiagabine was used as a reference ASM of a non‐competitive GAT1 inhibitor. Perfusate was switched from Ringer solution to high‐potassium Ringer solution (51.7 mM NaCl, 100.0 mM KCl, 0.6 mM MgSO4, 2.5 mM CaCl2, 5.0 mM HEPES, pH 7.4) after 127 minutes following the collection. GABA concentration in each sample was measured by a high‐performance liquid chromatography with tandem mass spectrometry method.

[3] = molecular target: T1, hGAT3 (Homo sapiens, UniProt P48066); assay: [3H]GABA uptake in hGAT3 stably expressing HEK293 cells; assay type: cell-based; conditions: 50 μM [3H]GABA
T1 construct: expressed in transfected cells; host or cells: HEK293
T1 sequence (P48066 1-632): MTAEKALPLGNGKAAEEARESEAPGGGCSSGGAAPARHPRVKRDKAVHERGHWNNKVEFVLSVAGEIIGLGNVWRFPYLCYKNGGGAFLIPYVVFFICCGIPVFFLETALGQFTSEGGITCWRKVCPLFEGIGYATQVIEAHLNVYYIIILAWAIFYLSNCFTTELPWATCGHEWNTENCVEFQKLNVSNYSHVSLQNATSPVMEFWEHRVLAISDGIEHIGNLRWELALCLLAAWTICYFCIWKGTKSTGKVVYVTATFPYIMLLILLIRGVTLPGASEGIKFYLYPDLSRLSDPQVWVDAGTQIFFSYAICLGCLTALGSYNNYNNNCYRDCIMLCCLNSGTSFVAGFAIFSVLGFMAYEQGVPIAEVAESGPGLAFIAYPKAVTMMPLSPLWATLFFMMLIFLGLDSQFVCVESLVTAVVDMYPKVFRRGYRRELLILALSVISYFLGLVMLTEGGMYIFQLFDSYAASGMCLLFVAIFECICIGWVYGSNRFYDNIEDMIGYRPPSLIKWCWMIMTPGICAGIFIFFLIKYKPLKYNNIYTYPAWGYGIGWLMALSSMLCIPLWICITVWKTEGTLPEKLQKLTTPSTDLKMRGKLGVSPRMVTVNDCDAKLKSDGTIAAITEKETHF
Experimental: HEK293 cells stably expressing human GAT1 (hGAT1), GAT2 (hGAT2), GAT3 (hGAT3), or betaine/GABA transporter 1 (hBGT‐1) were plated onto 96‐well microtiter plates at a density of 4.0 × 10^4 cells/well in Dulbecco's Modified Eagle's Medium (DMEM, containing 10% fetal bovine serum, 100 units/mL penicillin, 100 μg/mL streptomycin, 1% non‐essential amino acid solution, and 25 mM HEPES) and incubated overnight at 37°C in a 5% CO2 atmosphere. After washing the cells with Hanks’ balanced salt solution (HBSS, containing 140 mg/L CaCl2, 100 mg/L MgCl2, 20 mM HEPES, and 10 mM NaOH), E2730 (0.0128–1000 μM) was added to the plate. Following the addition of 50 μM [^3H]GABA, cells were incubated for 5 minutes at 37°C in a 5% CO2 atmosphere and then washed with cold HBSS. Washed cells were incubated in a scintillator for 1 hour at room temperature, followed by radioactivity measurements using a liquid scintillation counter.

[4] = test system: corneal kindling mice; assay: Corneal kindling in mice; assay type: in vivo; conditions: Mus musculus; oral, 1 hour before electrical stimulation; read-out: ED50 (95% CI) in corneal kindling mice
From the text: A corneal kindling mouse model was developed following the method described by Potschka and Löscher.[7] Male C57BL/6N mice (5 weeks old; Charles River Laboratories Japan, Japan) were stimulated using corneal electrodes (4 mA, 50 Hz, 3‐second duration each) twice daily for 10 consecutive days, and stimulated mice were observed and rated based on the Racine's scale (0, no seizure; 1, mild facial clonus and eye blinking; 2, severe facial clonus, head nodding, or chewing; 3, unilateral or alternating forelimb clonus; 4, bilateral forelimb clonus and rearing; 5, bilateral forelimb clonus with rearing and falling). Mice with scores ≥3 were deemed epileptic, whereas mice with scores <3 were deemed non‐epileptic. Mice rated 4 or 5 (i.e. fully kindled mice) were used for drug evaluation.

[5] = mouse hippocampus, oral, E2730 10-100 mg/kg, tiagabine 3-30 mg/kg

## NS(=O)(=O)N[C@H]1c2c(F)cc(F)cc2CC1(F)F [E2730]
[1]
  ED50: 17 mg/kg
[2]; E2730 10 mg/kg
  effect on high-potassium-induced extracellular GABA concentration: not statistically significant
[2]; E2730 30 and 100 mg/kg
  effect on high-potassium-induced extracellular GABA concentration: significantly increased
[2]; [5]
  effect on basal extracellular GABA concentration: no significant difference; also recorded: did not increase; also recorded: did not affect
  effect on high-potassium-induced extracellular GABA concentration: significant increase
[3]
  IC50: > 1000 µM
[4]
  ED50: 7.9 mg/kg
